Reference: patent US20180171411A1, “GFRalpha1 AS A BIOMARKER FOR CISPLATIN-INDUCED CHEMORESISTANCE AND METASTASIS” (THE BOARD OF REGENTS OF THE UNIVERSITY OF TEXAS SYSTEM, priority 2015, published 2018)

B1: GDNF: glial cell line-derived neurotrophic factor, the major ligand of GFRα1 (protein, UniProt P39905 78-211, looked up)
Glial cell line-derived …: SPDKQMAVLPRRERNRQAAAANPENSRGKGRRGQRGKNRGCVLTAIHLNVTDLGLGYETKEELIFRYCSGSCDAAETTYDKILKNLSRNRRLVSDKVGQACCRPIAFDDDLSFLDDNLVYHILRKHSAKRCGCI

Test system: GFRα1-overexpressing MG-63 cells
Test: WST-1 cell viability of GFRα1-overexpressing osteosarcoma cells
Assay type: cell-based, human
Method: FIG. 3. GFRα1-induced autophagy enhances the chemoresistance of osteosarcoma cells induced by cisplatin. (a) Control and GFRα1-deficient MG-63 cells were transiently transfected with a mRFP-GFP tandem fluorescent-tagged LC3 (mRFP-GFP-LC3) vector and then treated with cisplatin (20μM) for 24 hr. Left, representative images of RFP-LC3 and GFP-LC3 puncta. Scale bar, 20 μm. Right, quantitative analysis of the number of yellow puncta and the number of RFP-LC3 puncta in the combined images. The values are represented as a mean±s.d.m. (n=3). ** denotes p<0.05 by t-test. (b) Control and GFRα1-deficient MG-63 cells were treated with cisplatin (20 μM) for 24 hr and then stained with acridine orange. Top, representative images of cells stained with acridine orange. Scale bar, 20 μm. Bottom, quantitative analysis of the number of AVOs. The values are represented as a mean±s.d.m. (n=3). ** denotes p<0.05 by t-test. (c) Control and GFRα1-deficient MG-63 cells were treated with cisplatin (20 μM) for 24 hr and then analyzed by TEM. Top, representative images of autophagic vacuoles (yellow arrows) detected after cisplatin treatment in control MG-63 cells. Scale bar, 100 nm. Bottom, quantitative analysis of the number of autophagic vacuoles. The values are represented as a mean±s.d.m. (n=3). ** denotes p<0.05 by t-test. (d) Immunoblot analysis of control and GFRα1-overexpressing osteosarcoma cell lysates with antibodies specific for GFRα1, LC3 and β-actin. […] (e) Quantitative analysis of the number of yellow puncta and the number of RFP-LC3 puncta in control and GFRα1-overexpressing MG-63 cells. […] Bottom, quantitative analysis of the number of AVOs. […] (h) Control and GFRα1-overexpressing MG-63 cells were treated with cisplatin (20 μM) for 24 hr and then analyzed by TEM. Top, representative images of autophagic vacuoles detected after cisplatin treatment in control and GFRα1-overexpressing MG-63 cells. […] Bottom, quantitative analysis of the number of autophagic vacuoles. […] Cell viability was measured using the WST-1 assay. […] Cell viability was measured using the WST-1 assay. […]

Molecule	increase of cell proliferation in GFRα1 overexpressing cells (with DMSO, 3-MA or Baf, then cisplatin 20 μM 24 hr)	GFRα1-mediated cell survival after cisplatin treatment (Cisplatin+GDNF (50 ng/ml), 24 h)
Cn1cnc(N)c2ncnc1-2 [3-MA, 3-methyladenine]	blocked	
B1		did not have an effect
